Reference: patent US4369120A, “Refrigeration liquid with leak indicator and process of using same” (priority 1981, dated 1983)
“Also recorded” adds a separate entry of the source.

Tests used:
[1] = Sealed tube test of stability of dyes in refrigerant/refrigeration oil with metal coupons; type: physicochemical; conditions: for Stability, Mean Life: Table I, sealed tube data in R-12 at 350° F.; for stability in the sealed tube test (in words): Table I dyes
Method: By reference to Table I below it can be appreciated that such ortho substitution has a remarkably beneficial effect on the stability of the dyes in the accelerated sealed tube test used for evaluation. The first three dyes listed, embodying the principles of this invention, routinely withstand in excess of twenty days in the sealed tube test at 350° F. (176.7° C.), equivalent to many years of normal use in a refrigeration system.
The sealed tube test serves as a method of evaluating in an accelerated manner interactions of materials found in a refrigeration system.
Glass tubes and all metal test coupons are scrupulously cleaned. Test refrigerants are distilled to minimize moisture contamination. Moisture is removed from the refrigeration test oil "Suniso" 3GS by subjecting the oil to a vacuum with slight stirring and heating. Ratios of refrigerant/refrigerant oil range from 1:1 to 1:2 by weight.
Refrigerant oil and representative metal coupons of copper #10AWG wire, Swedish valve stock steel, and aluminum metal sheet are placed in a glass tube along with the subject test dye material (0.25-1.0% wt/wt) dissolved in the refrigerant oil. Like samples without the subject dye are analyzed as controls.
The tube and its contents are chilled in a liquid nitrogen bath while the refrigerant is condensed into the tube via a calibrated manometer. The tube is sealed under a vacuum of at least 0.1 torr.
Glass tubes and contents are subjected to uniform heating in a bored aluminum block placed in a temperature-programmed oven.
The oven temperatures used vary according to the test refrigerant, as indicated:
The test is run for one of the following time periods: 5, 14, 21, 30 or 60 days.
The tube contents may be evaluated by several methods:
of these methods, the visual examination is the most rapid and the only qualitative method. Any color change in the subject dye coloration is noted when compared to a control sample.
The quantitative methods involve analysis for decomposition products of chloride as hydrochloric acid or organic products by gas chromatography, infrared spectroscopy, or mass spectroscopy. However, visual inspection and gas chromatography are widely used, and they were selected as standardization procedures for evaluation of sealed tube contents.
R-12 is chemically one of the more reactive refrigerants; thus, short term tests with refrigeration liquids containing this refrigerant admixed with a mineral oil yield the most rapid results. R-22 and R-502 are also used but the decomposition products are more difficult to analyze by gas chromatography. Ultimately the test material must pass interactions involving any of these refrigerants. The visual method can be used empirically on a pass-fail basis. As verified experimentally, visual results are considered as valid as instrumental methods.

[2] = Solubility of dyes in refrigeration oils; conditions: for Dye Solubility in refrigeration oil: room temperature (about 21° C.); for Oil Sol. In 3GS: Table I, Suniso 3GS refrigeration oil
Method: Manufacturers of refrigeration equipment generally demand that any refrigeration liquid satisfactorily pass such a sealed tube test before they approve the liquid for use in their equipment. In addition, the solubility of the various dyes in oil and in refrigerant were determined.
Solubility of various dyes in various refrigeration oils was carefully determined according to the following standardized procedure. An excess of the subject dye was added to a given weight (e.g., 100 g) of refrigerant oil. The mixture was stirred for one-half hour with mild heating, whereupon it was cooled to room temperature (about 21° C.) and transferred to a centrifuge tube. The mixture was centrifuged approximately 15 minutes at 1000 rpm. A sample of the supernatant liquid was decanted (1.00 g±0.01 g) and diluted to 100 ml volume with methylene chloride. Aliquot portions were taken and read against the principal absorption peaks by visible light spectroscopy. Wt/wt percentage concentrations were then calculated from proper standard curves.

[3] = Solubility of dyes in halocarbon refrigerants; type: physicochemical
Method: Solubilities of various dyes in various halocarbon refrigerants were also determined according to the following standardized procedure. […] The R-11 was allowed to vaporize, leaving a known amount of dye in the bottom portion of the test tube. The tube was then attached to a charging apparatus containing a supply of a given halocarbon refrigerant and various amounts of the refrigerant were charged into the tube while chilling the latter by immersion in liquid nitrogen. The tube containing the dye/refrigerant mixture was sealed under vacuum, allowed to reach room temperature (about 21° C.) and rotated for several hours. Visual inspection of the tube was made at several temperatures to note the degree of dissolution. The procedure was improved over previously used methods in that an exact predetermined amount of dye and refrigerant were made to interact, requiring fewer weighings. Finally, it became possible to use the same tube to check solubility at several different temperatures.

Which results are given for `CCc1cccc(C)c1Nc1ccc(Nc2c(C)cccc2CC)c2c1C(=O)c1ccccc1C2=O` [Dye No. 1-35, 1,4-bis(2-methyl-6-ethylanilino)anthraquinone]?
stability in the sealed tube test at 402° F. (in words) ([1]; 402° F. (205.5° C.), compared with 350° F.): virtually as stable at 402° F. (205.5° C.) as it is at 350° F. (176.7° C.); also recorded: excellent stability of dye No. 1-35 persists even at much higher test temperatures; Mean Life, Days at 350° F. ([1]; Sample C, purity 97%): 24.0 days; Mean Life, Days at 350° F. ([1]; Sample D, purity 95%): 24.0 days; Mean Life, Days at 350° F. ([1]; Sample E, purity 89%): 17.0 days; Mean Life, Days at 350° F. ([1]; Sample F, purity 65%): 5.0 days; Mean Life, Days at 350° F. ([1]; Samples A and B, purity 100% (by definition)): 26.2 days; Stability, Mean Life [1]: 26.2 days; stability as measured by the sealed tube test ([1]; text summary of Table I, 350° F.): > 20 days; solubility in the refrigeration oil (in words) [2]: relatively high solubility; Dye Solubility in refrigeration oil ([2]; DuPont Zephron 150 (alkyl benzene type)): 5.3 %(wt/wt); Dye Solubility in refrigeration oil ([2]; Suniso 3GS): 4.8 %(wt/wt); Dye Solubility in refrigeration oil ([2]; Suniso 4GS): 4.6 %(wt/wt); Dye Solubility in refrigeration oil ([2]; Suniso 5GS): 4.8 %(wt/wt); Oil Sol. In 3GS [2]: 4.8%; Dye Solubility in refrigeration oil ([2]; Texaco Cappella D): 4.8 %(wt/wt); Dye Solubility in refrigeration oil ([2]; Texaco Cappella E): 4.9 %(wt/wt); solubility in representative naphthenic and alkyl benzene refrigeration oils ([2]; summary of Table II): about 5%; solubility in the halocarbon refrigerant (in words) [3]: sufficient solubility; also recorded: substantially greater solubility in the various refrigerants than the other dyes tested; Solubility in refrigerant ([3]; R-11, 21° C.): 0.2 %(wt/wt); Solubility in refrigerant ([3]; R-12, 0° C.): 0.2 %(wt/wt); Solubility in refrigerant ([3]; R-12, 21° C.): 0.2 %(wt/wt); Solubility in refrigerant ([3]; R-12, -20° C.): 0.2 %(wt/wt); Solubility in refrigerant ([3]; R-22, 0° C.): 0.4 %(wt/wt); Solubility in refrigerant ([3]; R-22, 21° C.): 0.4 %(wt/wt); Solubility in refrigerant ([3]; R-22, -20° C.): 0.4 %(wt/wt); Solubility in refrigerant ([3]; R-502, 0° C.): < 0.1 %(wt/wt); Solubility in refrigerant ([3]; R-502, 21° C.): 0.1 %(wt/wt); Solubility in refrigerant ([3]; R-502, -20° C.): < 0.1 %(wt/wt); Refr. Sol. In R-12 ([3]; Table I, refrigerant R-12): 0.2%

For `CCCCc1ccc(Nc2ccc(Nc3ccc(CCCC)cc3)c3c2C(=O)c2ccccc2C3=O)cc1` [Dye No. 4-1, 1,4-Bis(4-n-butylanilino)], which “Stability, Mean Life” value [1] is on record?
The value was 9.5 days.

What about the “Oil Sol. In 3GS” value [2] of the same compound?
The value was less than 1.0%.

Which results are given for `O=C1c2ccccc2C(=O)c2c(Nc3ccc(C4CCCCC4)cc3)ccc(Nc3ccc(C4CCCCC4)cc3)c21` [Dye No. 5-5, 1,4-Bis(4-cyclohexylanilino)]?
Stability, Mean Life [1]: 9.7 days; Oil Sol. In 3GS [2]: 0.1%

With `CC(C)(C)c1ccc(Nc2ccc(Nc3ccc(C(C)(C)C)cc3)c3c2C(=O)c2ccccc2C3=O)cc1` [Dye No. 6-21, 1,4-Bis(4-t-butylanilino)] as the compound, how does the “Stability, Mean Life” value [1] read?
The value was 8.7 days.

What about the “Oil Sol. In 3GS” value [2] of the same compound?
The value was 1.0%.

For `CCOc1ccc(Nc2ccc(Nc3ccc(OCC)cc3)c3c2C(=O)c2ccccc2C3=O)cc1` [Dye No. 7-3, 1,4-Bis(4-ethoxyanilino)], which “Stability, Mean Life” value [1] is on record?
Its value is 8.5 days.

And the “Oil Sol. In 3GS” value [2]?
Its value is less than 1.0%.

Which “Stability, Mean Life” value [1] does the source give for `CCCCOc1ccc(Nc2ccc(Nc3ccc(OCCCC)cc3)c3c2C(=O)c2ccccc2C3=O)cc1` [Dye No. 8-2, 1,4-Bis(4-n-butoxyanilino)] here?
Its value is 8.6 days.

What about the “Oil Sol. In 3GS” value [2] of the same compound?
Its value is 0.02%.

Which results are given for `O=C1c2ccccc2C(=O)c2c(NCCc3ccccc3)ccc(NCCc3ccccc3)c21` [Dye No. 9-8, 1,4-Bis(β-phenethylamino)]?
Stability, Mean Life [1]: 4.4 days; Oil Sol. In 3GS [2]: 0.1%

What does the source list for `O=C1c2ccccc2C(=O)c2c(NCc3ccccc3)ccc(NCc3ccccc3)c21` [Dye No. 10-19, 1,4-Bis(benzylamino)]?
Stability, Mean Life [1]: 4.5 days; Oil Sol. In 3GS [2]: < 0.25%

For `CC(Nc1ccc(NC(C)c2ccccc2)c2c1C(=O)c1ccccc1C2=O)c1ccccc1` (stereo not drawn) [Dye No. 11-17, 1,4-Bis(α-methylbenzylamino)], which “Stability, Mean Life” value [1] is on record?
The value was 3.5 days.

What about the “Oil Sol. In 3GS” value [2] of the same compound?
Its value is 1.0%.

Which “Stability, Mean Life” value [1] does the source give for `O=C1c2ccccc2C(=O)c2c(NC(c3ccccc3)c3ccccc3)ccc(NC(c3ccccc3)c3ccccc3)c21` [Dye No. 12-20, 1,4-Bis(diphenylmethylamino)] here?
The value was 2.0 days.

What about the “Oil Sol. In 3GS” value [2] of the same compound?
Its value is less than 0.05%.

For `CCCCCCCCNc1ccc(NCCCCCCCC)c2c1C(=O)c1ccccc1C2=O` [Dye No. 13-27, 1,4-Bis(n-octylamino)], which “Stability, Mean Life” value [1] is on record?
Its value is 4.4 days.

And the “Oil Sol. In 3GS” value [2]?
The value was 0.5%.

What does the source list for `CCCCCCCCCCCCNc1ccc(NCCCCCCCCCCCC)c2c1C(=O)c1ccccc1C2=O` [Dye No. 14-32, 1,4-Bis(n-dodecylamino)]?
Stability, Mean Life [1]: 2.3 days; Oil Sol. In 3GS [2]: 0.5%

What does the source list for `CC(C)(C)CNc1ccc(NCC(C)(C)C)c2c1C(=O)c1ccccc1C2=O` [Dye No. 15-13, 1,4-Bis(neopentylamino)]?
stability in the sealed tube test (in words) ([1]; 350° F.): very unstable; Stability, Mean Life [1]: 3.4 days; Oil Sol. In 3GS [2]: < 1.0%

Which results are given for `CN(c1ccccc1)c1ccc(N(C)c2ccccc2)c2c1C(=O)c1ccccc1C2=O` [Dye No. 16-10, 1,4-Bis(N--methylanilino)]?
stability in the sealed tube test (in words) ([1]; 350° F.): very unstable; Stability, Mean Life [1]: 7.0 days; Oil Sol. In 3GS [2]: 0.1%

Which results are given for `CCN(c1ccccc1)c1ccc(N(CC)c2ccccc2)c2c1C(=O)c1ccccc1C2=O` [Dye No. 17-14, 1,4-Bis(N--ethylanilino)]?
stability in the sealed tube test (in words) ([1]; 350° F.): very unstable; Stability, Mean Life [1]: 4.5 days; Oil Sol. In 3GS [2]: 1.0%

For `CCCCc1ccc(N(C)c2ccc(N(C)c3ccc(CCCC)cc3)c3c2C(=O)c2ccccc2C3=O)cc1` [Dye No. 18-6, 1,4-Bis(N-methyl-4-n-butylanilino)anthraquinone], which “stability in the sealed tube test (in words)” value ([1]; 350° F.) is on record?
The value was “very unstable”.

What about the “Stability, Mean Life” value [1] of the same compound?
Its value is 4.3 days.

And the “Oil Sol. In 3GS” value [2]?
Its value is 0.1%.

With `CCOc1ccc(N(C)c2ccc(N(C)c3ccc(OCC)cc3)c3c2C(=O)c2ccccc2C3=O)cc1` [Dye No. 19-9, 1,4-Bis(N--methyl-4-ethoxyanilino)] as the compound, how does the “stability in the sealed tube test (in words)” value ([1]; 350° F.) read?
Its value is “very unstable”.

And the “Stability, Mean Life” value [1]?
Its value is 6.0 days.

What about the “Oil Sol. In 3GS” value [2] of the same compound?
Its value is 0.1%.

For `CCCCOc1ccc(N(C)c2ccc(N(C)c3ccc(OCCCC)cc3)c3c2C(=O)c2ccccc2C3=O)cc1` [Dye No. 20-12, 1,4-Bis(N--methyl-4-n-butoxyanilino)], which “stability in the sealed tube test (in words)” value ([1]; 350° F.) is on record?
Its value is “very unstable”.

And the “Stability, Mean Life” value [1]?
The value was 4.0 days.

And the “Oil Sol. In 3GS” value [2]?
Its value is 0.1%.

What does the source list for `CCCCc1ccc(Nc2ccc(Nc3ccc(C)cc3)c3c2C(=O)c2ccccc2C3=O)cc1` [Dye No. 21-11, 1-(4-n-butylanilino)-4-(p-toluidino)]?
Stability, Mean Life [1]: 7.7 days; Oil Sol. In 3GS [2]: 0.1%

Which results are given for `CCCCc1ccc(Nc2cc(C)c(Nc3ccc(CCCC)cc3)c3c2C(=O)c2ccccc2C3=O)cc1` [Dye No. 22-16, 1,4-Bis(4-n-butylanilino)-2-methyl]?
stability in the sealed tube test (in words) ([1]; 350° F.): very unstable; Stability, Mean Life [1]: 3.0 days; Oil Sol. In 3GS [2]: 1.0%

Which “stability in the sealed tube test (in words)” value ([1]; 350° F.) does the source give for `O=C1c2ccccc2C(=O)c2c(Nc3ccccc3C(F)(F)F)ccc(Nc3ccccc3C(F)(F)F)c21` [Dye No. 23-24, 1,4-Bis(2-trifluoro-methylanilino)] here?
Its value is “very unstable”.

And the “Stability, Mean Life” value [1]?
Its value is 6.5 days.

And the “Oil Sol. In 3GS” value [2]?
The value was 0.5%.
